Laboratory results reported in the Kinase Knowledgebase extract (Sharma et al. 2016).
Where “and” joins values, the source holds several entries; their conditions need not be identical. Equal values may be shown once.

What was measured:
CDK2 (human) [1] = biological target: CDK2 (human) (UniProt P24941); assay: Enzyme Assay
CDK2;CDK1 (human) = CDK2;CDK1 (human) (UniProt P24941); assay: Cell-Based Assay
CDK2 (human) [2] = biological target: CDK2 (human) (UniProt P24941); assay: Enzyme Assay; remark: listed apart in the source

| IC50 (CDK2 (human) [1]) [µM] | SMILES | other results |
| --- | --- | --- |
| > 10 | CC(=O)N[C@H]1CC[C@H](Nc2nc(NCc3ccc(-c4ccc(Cl)cc4)cc3)c3ncn(C(C)C)c3n2)CC1 | – |
| – | CC(=O)C1CCN(c2nc(NCc3ccc(-c4ccccc4)cc3)c3ncn(C(C)C)c3n2)CC1 | GI50 (CDK2;CDK1 (human); hela-s3): 3 µM and 5 µM |
| > 10 | CC(=O)N[C@H]1CC[C@H](Nc2nc(NCc3ccc(-c4ccc(C(=O)O)cc4)cc3)c3ncn(C(C)C)c3n2)CC1 | IC50 (CDK2 (human) [2]): > 10 µM |
| – | CC(=O)N[C@H]1CC[C@H](Nc2nc(NCc3ccc(-c4cccc(F)c4)cc3)c3ncn(C(C)C)c3n2)CC1 | GI50 (CDK2;CDK1 (human); hela-s3): 0.07 µM and 0.2 µM |
| – | CC(C)n1cnc2c(NCc3ccc(-c4cccc(F)c4)cc3)nc(N[C@H]3CC[C@H](N)CC3)nc21 | GI50 (CDK2;CDK1 (human); hela-s3): 0.05 µM and 0.03 µM |
| > 10 | COC(=O)c1ccc(-c2ccc(CNc3nc(N[C@H]4CC[C@H](NC(C)=O)CC4)nc4c3ncn4C(C)C)cc2)cc1 | – |
| > 10 | CC(=O)N[C@H]1CC[C@H](Nc2nc(NCc3ccc(-c4ccc(F)c(Cl)c4)cc3)c3ncn(C(C)C)c3n2)CC1 | – |
| ≥ 10 | CC(=O)N[C@@H](C)CNc1nc(NCc2ccc(-c3ccccc3)cc2)c2ncn(C(C)C)c2n1 | IC50 (CDK2 (human) [2]): > 10 µM |
| – | CC(=O)N[C@H]1CC[C@H](Nc2nc(NCc3ccc(-c4ccccc4)nc3)c3ncn(C(C)C)c3n2)CC1 | GI50 (CDK2;CDK1 (human); h226): 0.052 µM |
| > 10 | CC(=O)N[C@H]1CCCC[C@@H]1Nc1nc(NCc2ccc(-c3ccccc3)cc2)c2ncn(C(C)C)c2n1 | IC50 (CDK2 (human) [2]): > 10 µM |
| > 10 | CC(C)n1cnc2c(NCc3ccc(-c4ccccc4)cc3)nc(N[C@H]3CCCC[C@H]3NC(=O)Nc3ccccc3)nc21 | IC50 (CDK2 (human) [2]): > 10 µM |
| > 10 | CC(=O)N[C@H]1CC[C@H](Nc2nc(NCc3ccc(-c4ccc(C)cc4)cc3)c3ncn(C(C)C)c3n2)CC1 | – |
| > 10 | CC(C)n1cnc2c(NCc3ccc(-c4ccccc4)cc3)nc(N[C@H]3CC[C@H](O)CC3)nc21 | GI50 (CDK2;CDK1 (human); adr-res): 0.03 µM |
| > 10 | CC(=O)N[C@H]1CC[C@H](Nc2nc(NCc3ccc(-c4ccc(F)cc4)cc3)c3ncn(C(C)C)c3n2)CC1 | – |
| > 10 | CC(C)n1cnc2c(NCc3ccc(-c4ccccc4)cc3)nc(NC3(CO)CCCC3)nc21 | – |
| > 10 | CC[C@H](CO)Nc1nc(NCc2ccc(-c3cccc(NC(C)=O)c3)cc2)c2ncn(C(C)C)c2n1 | – |
